Measured values taken from patent publication US9303033B2, “Pyrazolopyrimidines and related heterocycles as CK2 inhibitors” (SENHWA BIOSCIENCES, INC., priority 2009, dated 2016).
Like-named read-outs stand apart in the source and are kept apart here.

Tests used:
recombinant human PIM2 = recombinant human PIM2 (Homo sapiens (Human), UniProt Q9P1W9); assay: PIM-2 assay (33P-ATP filter binding); format: biochemical; conditions: for PIM2: % inh […]: at […] compound
Protocol: Test compounds dissolved and diluted in DMSO (2 μl) were added to a reaction mixture comprising 10 μl of 5× Reaction Buffer (40 mM MOPS pH 7.0, 5 mM EDTA), 10 μl of recombinant human PIM2 solution (4 ng PIM-2 dissolved in dilution buffer (20 mM MOPS pH 7.0; EDTA 1 mM; 5% Glycerol; 0.01% Brij 35; 0.1%; 0.1% 2-mercaptoethanol; 1 mg/ml BSA)) and 8 ul of water.

CK2 ααββ = CK2 ααββ (Homo sapiens (Human), UniProt P68400); assay: CK2 assay (cell-free, 33P-ATP, phosphocellulose filter plate); format: biochemical
Protocol: Modulatory activity of compounds described herein was assessed in vitro in cell-free CK2 assays by the following method.
Reactions were maintained for 40 min at 23° C. The reactions were quenched with 100 ul of 0.75% Phosphoric acid, then transferred to and filtered through a Phosphocellulose filter plate (Millipore, MSPH-N6B-50). After washing each well 4 times with 0.75% Phosphoric acid, scintillation fluid (20 uL) was added to each well and the residual radioactivity was measured using a Wallac luminescence counter.

recombinant PIM-1 = recombinant PIM-1 (Homo sapiens (Human), UniProt P11309); assay: PIM-1 assay (33P-ATP filter binding); format: biochemical; conditions: read-out: PIM1: IC50 (30 μM ATP)
Protocol: (SEQ ID NO.: 5), 10 mM MgAcetate, 15 uM ATP, [γ-^33P-ATP] (specific activity approx. 500 cpm/pmol), DMSO 4% and test inhibitor compound at the required concentration. The reaction was initiated by the addition of the Magnesium ATP mixture. After 40 min incubation at 23° C., the reactions were quenched by the addition of 100 ul 0.75% Phosphoric acid, and the labeled peptide collected by filtration through a phosphocellulose filter plate. The plate was washed 4 times with 0.075% phosphoric acid (100 ul per well) and then, after the addition of scintillation fluid (20 ul per well), the counts were measured by a scintillation counter.

MDAMB453 = assay: Cell proliferation assay with Alamar Blue (AB), MDAMB453; format: cell-based
Protocol: (§1) A representative cell-proliferation assay protocol using Alamar Blue dye (stored at 4° C., use 20 ul per well) is described hereafter.
(§2) a. Split and trypsinize cells.
(§3) b. Count cells using hemocytometer.
(§4) c. Plate 4,000-5,000 cells per well in 100 μl of medium and seed into a 96-well plate according to the following plate layout. Add cell culture medium only to wells B10 to B12.
(§5) d. Add 100 μl of 2× drug dilution to each well in a concentration shown in the plate layout above. […] Total volume is 200 μl/well.
(§6) e. Incubate four (4) days at 37° C., 5% CO2 in a humidified incubator.
(§7) f. Add […] Alamar Blue reagent to each well.
(§8) g. Incubate for four (4) hours at 37° C., 5% CO2 in a humidified incubator.
(§9) h. Record fluorescence at an excitation wavelength of 544 nm and emission wavelength of 590 nm using a microplate reader.
(§10) In the assays, cells are cultured with a test compound for approximately four days, the dye is then added to the cells and fluorescence of […] dye is detected after approximately four hours. Different types of cells can be utilized in the assays (e.g., HCT-116 human colorectal carcinoma cells, PC-3 human prostatic cancer cells, MDA-MB231 human breast cancer cells, K-562 human chronic myelogenous leukemia (CML) cells, MiaPaca human pancreatic carcinoma cells, MV-4 human acute myeloid leukemia cells, and BxPC3 human pancreatic adenocarcinoma cells).

[1] = system: BxPC3 human pancreatic adenocarcinoma cells; assay: Cell proliferation assay with Alamar Blue (AB), BxPC3; format: cell-based
Protocol: as §1, §2, §3, §4, §5, §6, §7, §8, §9, §10

[2] = PIM2: IC50 (5 μM ATP), 5 μM ATP
[3] = Homo sapiens, MDA-MB-453, MDAMB453 cells, read-out: AB: MDAMB453
[4] = Homo sapiens, BXPC-3, read-out: AB: BxPC3
[5] = MDAMB453 cells, read-out: AB: MDAMB453 IC50
[6] = read-out: PIM2: IC50 (5 μM ATP), 5 μM ATP
[7] = MDAMB453 cells, read-out: AB: MDAMB453

Sequence of recombinant human PIM2 (Q9P1W9 whole entry): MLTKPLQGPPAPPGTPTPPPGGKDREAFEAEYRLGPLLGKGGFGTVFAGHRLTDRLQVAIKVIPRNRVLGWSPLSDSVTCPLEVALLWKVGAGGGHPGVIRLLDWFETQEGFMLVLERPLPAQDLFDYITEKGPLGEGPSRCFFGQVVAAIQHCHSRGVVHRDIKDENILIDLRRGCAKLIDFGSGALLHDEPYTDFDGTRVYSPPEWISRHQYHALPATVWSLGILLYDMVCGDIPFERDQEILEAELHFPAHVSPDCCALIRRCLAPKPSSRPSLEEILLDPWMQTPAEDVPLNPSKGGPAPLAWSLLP
Sequence of recombinant PIM-1 (P11309 whole entry): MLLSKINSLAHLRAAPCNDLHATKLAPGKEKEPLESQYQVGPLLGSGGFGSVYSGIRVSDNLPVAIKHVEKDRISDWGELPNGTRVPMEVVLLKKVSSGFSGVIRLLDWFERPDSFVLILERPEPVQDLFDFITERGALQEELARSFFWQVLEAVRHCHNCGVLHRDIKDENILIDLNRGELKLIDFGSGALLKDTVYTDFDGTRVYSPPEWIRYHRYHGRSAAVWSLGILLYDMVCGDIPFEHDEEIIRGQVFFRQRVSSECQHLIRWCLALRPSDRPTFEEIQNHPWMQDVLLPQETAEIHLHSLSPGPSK
Sequence of CK2 ααββ (P68400 whole entry): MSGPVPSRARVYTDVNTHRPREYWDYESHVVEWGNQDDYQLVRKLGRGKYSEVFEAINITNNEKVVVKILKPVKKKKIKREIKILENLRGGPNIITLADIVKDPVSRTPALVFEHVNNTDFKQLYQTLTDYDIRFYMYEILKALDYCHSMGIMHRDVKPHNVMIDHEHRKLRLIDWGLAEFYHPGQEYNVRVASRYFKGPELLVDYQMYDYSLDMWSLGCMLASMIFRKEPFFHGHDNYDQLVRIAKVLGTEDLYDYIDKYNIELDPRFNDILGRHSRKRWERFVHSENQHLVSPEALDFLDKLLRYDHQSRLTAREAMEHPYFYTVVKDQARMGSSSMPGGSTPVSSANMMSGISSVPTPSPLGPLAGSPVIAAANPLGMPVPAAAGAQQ
Sequence of CK2 ααββ (P67870 whole entry partner): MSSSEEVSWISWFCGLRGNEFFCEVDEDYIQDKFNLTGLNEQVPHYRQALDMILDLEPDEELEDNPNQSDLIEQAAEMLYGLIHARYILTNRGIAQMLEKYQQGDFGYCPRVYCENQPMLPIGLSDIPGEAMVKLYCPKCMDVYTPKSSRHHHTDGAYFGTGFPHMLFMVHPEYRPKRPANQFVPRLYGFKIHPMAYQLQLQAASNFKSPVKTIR

Row | SMILES | IC50 (recombinant human PIM2; [2]) | IC50 (CK2 ααββ) | IC50 (MDAMB453; [3]) | IC50 [1, 4] | further results
1 | CCN1CCCC1CNc1cc(NC2CC2)n2ncc(/C=C3\SC(=O)NC3=O)c2n1 (centres unmarked) [Example G3] | 1850 nM | < 100 nM | 7700 nM | 9450 nM | IC50 (recombinant PIM-1): 2060 nM
2 | O=C1NC(=O)/C(=C/c2cnn3c(NC4CC4)cc(N4CCOCC4)nc23)S1 [Example K3] | 1390 nM | < 1000 nM |  |  | IC50 (recombinant PIM-1): 918 nM
3 | CN1CCC(N(C)c2cc(NC3CC3)n3ncc(/C=C4\SC(=O)NC4=O)c3n2)C1 (centres unmarked) [Example M3] | 1440 nM | < 100 nM |  |  | IC50 (recombinant PIM-1): 1450 nM
4 | CCN(CC)c1cc(NC2CC2)n2ncc(/C=C3\SC(=O)NC3=O)c2n1 [Example L3] | 1430 nM | < 1000 nM |  |  | IC50 (recombinant PIM-1): > 2500 nM
5 | CN1C(=O)S/C(=C\c2cnn3c(NC4CC4)cc(Nc4cccc(Cl)c4)nc23)C1=O [Example P3] | > 2500 nM | < 1000 nM |  |  | IC50 (recombinant PIM-1): > 2500 nM
6 | CC(O)CNc1cc(NC2CC2)n2ncc(/C=C3\SC(=O)NC3=O)c2n1 (centres unmarked) [Example H3] | > 2500 nM | < 1000 nM |  |  | IC50 (recombinant PIM-1): 2390 nM
7 | CS(=O)(=O)Nc1cccc(-c2cc(NC3CC3)n3ncc(/C=C4\NC(=O)NC4=O)c3n2)c1 [Example C4] | 2400 nM | < 100 nM | 1490 nM | 3280 nM | 
8 | O=C1NC(=O)/C(=C/c2cnn3c(NC4CC4)cc(Nc4cccc(OC(F)(F)F)c4)nc23)N1 [Example E1] | > 2500 nM | < 10 nM | 17700 nM | 16800 nM | 
9 | COC(=O)c1cccc(-c2cc(NC3CC3)n3ncc(/C=C4\NC(=O)NC4=O)c3n2)c1 [Example W3] | > 2500 nM | < 10 nM | 1710 nM | 2050 nM | 
10 | O=C1NC(=O)/C(=C/c2cnn3c(NC4CC4)cc(-c4cccc(F)c4)nc23)N1 [Example J4] | 867 nM | < 10 nM | 4750 nM | > 30000 nM | 
11 | CN1C(=O)NC(=Cc2cnn3c(NC4CC4)cc(Nc4ccc(C#N)c(Cl)c4)nc23)C1=O [Example E42] |  | < 100 nM |  |  | PIM2: % inh […] (recombinant human PIM2): −72.498%; IC50 (MDAMB453; [5]): 1290 nM; IC50 ([1]; read-out: AB: BxPC3 IC50): 1970 nM
12 | O=C1NC(=O)/C(=C/c2cnn3c(NC4CC4)cc(-c4cccc(OCC5=NCCN5)c4)nc23)N1 [Example K4] | 1310 nM | < 100 nM | 1940 nM | 2580 nM | 
13 | CN1C(=O)NC(=Cc2cnn3c(NC4CC4)cc(Nc4ccc(C#N)cc4)nc23)C1=O [Example D42] |  | < 100 nM |  |  | PIM2: % inh […] (recombinant human PIM2): −39.275%; IC50 (MDAMB453; [5]): 693 nM; IC50 ([1]; read-out: AB: BxPC3 IC50): 2800 nM
14 | O=C1NC(=O)/C(=C/c2cnn3c(NC4CC4)cc(-c4cccc(NS(=O)(=O)C5CC5)c4)nc23)N1 [Example Z4] | > 2500 nM | < 10 nM | 15700 nM | 29000 nM | 
15 | O=C1NC(=S)S/C1=C\c1cnn2c(NC3CC3)cc(-c3ccnc(F)c3)nc12 |  | < 1000 nM | > 30000 nM | 22700 nM | IC50 (recombinant human PIM2; 5 um ATP, read-out: PIM2: IC50 (5 um ATP)): 1590 nM
16 | C[C@H](Nc1cc(NC2CC2)n2ncc(/C=C3\NC(=O)NC3=O)c2n1)C1CC1 [Example U2] | 766 nM | < 10 nM | 12800 nM | > 30000 nM | 
17 | CCCCS(=O)(=O)Nc1cccc(-c2cc(NC3CC3)n3ncc(/C=C4\NC(=O)NC4=O)c3n2)c1 [Example Y4] | > 2500 nM | < 10 nM | 1980 nM | 2250 nM | 
18 | O=C1NC(=O)/C(=C/c2cnn3c(NC4CC4)cc(NCCF)nc23)S1 [Example N3] | > 2500 nM | < 1000 nM |  |  | IC50 (recombinant PIM-1): > 2500 nM
19 | CNc1cc(-c2cccc(CNC(C)=O)c2)nc2c(/C=C3\NC(=O)NC3=O)cnn12 [Example V4] | > 2500 nM | < 100 nM | 12400 nM | > 30000 nM | 

Row | SMILES | IC50 (recombinant human PIM2; [2]) | IC50 (CK2 ααββ) | IC50 (MDAMB453; [3]) | IC50 [1, 4] | further results
20 | O=C1NC(=O)/C(=C/c2cnn3c(NC4CC4)cc(-c4cccc(CO)c4)nc23)N1 [Example V3] | 649 nM | < 10 nM | 477 nM | 5170 nM | 
21 | O=C1NC(=O)/C(=C/c2cnn3c(NCC4CC4)cc(Nc4ccc(Cl)nc4)nc23)N1 [Example X1] | > 2500 nM | < 100 nM | 6940 nM | 7990 nM | 
22 | O=C1NC(=O)/C(=C/c2cnn3c(NC4CC4)cc(Nc4cccc(Cl)c4)nc23)S1 [Example J3] | > 2500 nM | < 1000 nM |  |  | IC50 (recombinant PIM-1): > 2500 nM
23 | COC(=O)CN1CCC(Nc2cc(Nc3cccc(Cl)c3)nc3c(/C=C4\NC(=O)NC4=O)cnn23)CC1 [Example O5] | 2410 nM | < 100 nM | 1120 nM | 4260 nM | 
24 | CC1CN(C(C)c2cccc(Nc3cc(NC4CC4)n4ncc(/C=C5\NC(=O)NC5=O)c4n3)c2)CC(C)O1 (centres unmarked) [Example G1] | > 2500 nM | < 10 nM | 10000 nM | > 30000 nM | 
25 | O=C1NC(=O)/C(=C/c2cnn3c(NC4CC4)cc(Nc4cccc(F)c4)nc23)N1 [Example D1] | 2200 nM | < 10 nM | 1340 nM | 4070 nM | 
26 | CC(C)CNc1cc(NC2CC2)n2ncc(/C=C3\SC(=O)NC3=O)c2n1 [Example F3] | 1640 nM | < 1000 nM |  |  | IC50 (recombinant PIM-1): 2060 nM
27 | Cc1c(Nc2ccc(C#N)cc2Cl)nc2c(C=C3NC(=O)NC3=O)cnn2c1NC1CC1 [Example D46] |  | < 10 nM |  |  | PIM2: % inh […] (recombinant human PIM2): 53.934%; IC50 (MDAMB453; [5]): 6240 nM; IC50 ([1]; read-out: AB: BxPC3 IC50): 29900 nM
28 | CN1CCC(Nc2cc(NC3CC3)n3ncc(/C=C4\NC(=O)NC4=O)c3n2)CC1 [Example V2] | 1370 nM | < 10 nM | 1480 nM | 1630 nM | 
29 | CN(C)c1cc(NC2CC2)n2ncc(/C=C3\SC(=O)NC3=O)c2n1 [Example I3] | 876 nM | < 100 nM |  |  | IC50 (recombinant PIM-1): > 2500 nM
30 | O=C1NC(=O)/C(=C/c2cnn3c(NC4CCNCC4)cc(Nc4cccc(Cl)c4)nc23)N1 [Example K5] | 2450 nM | < 100 nM | 1080 nM | 11000 nM | 
31 | O=C1NC(=O)/C(=C/c2cnn3c(NC4CC4)cc(NCC4CC4)nc23)N1 [Example T2] | 998 nM | < 10 nM | 2490 nM | 6900 nM | 
32 | O=C1NC(=O)/C(=C/c2cnn3c(NC4CC4)cc(-c4cccnc4)nc23)N1 [Example U4] | > 2500 nM | < 10 nM | 1260 nM | 8130 nM | 
33 | COc1cccc(Nc2cc(NC3CC3)n3ncc(/C=C4\NC(=O)NC4=O)c3n2)c1 [Example F1] | > 2500 nM | < 10 nM | 2040 nM | 5760 nM | 
34 | O=C1NC(=O)C(=Cc2cnn3c(NC4CC4)cc(-c4csc(CNC5CCCC5)c4)nc23)N1 [Compound B14] |  | < 10 nM |  |  | IC50 (recombinant human PIM2; [6]): 1450 nM; IC50 (MDAMB453; [7]): 1610 nM; IC50 ([1]; read-out: AB: BxPC3): 1000 nM
35 | O=C1NC(=O)C(=Cc2cnn3c(NC4CC4)cc(-c4csc(CN5CCCC5)c4)nc23)N1 [Compound Y13] |  | < 10 nM |  |  | IC50 (recombinant human PIM2; [6]): > 2500 nM; IC50 (MDAMB453; [7]): 1390 nM; IC50 ([1]; read-out: AB: BxPC3): 929 nM
36 | Nc1cc(NC2CC2)n2ncc(/C=C3\NC(=O)NC3=O)c2n1 [Example K2] | > 2500 nM | < 10 nM | 11800 nM | 9930 nM | 
37 | O=C1NC(=O)/C(=C/c2cnn3c(NC4CC4)cc(-c4cccc(OCC5CC5)c4)nc23)N1 [Example F4] | > 2500 nM | < 10 nM | 1300 nM | 6590 nM | 
